The term EC50 denotes the concentration needed to bring the measured effect to its halfway point. A low value points to higher potency in that assay.

Here are results for 17 compounds from EP3723746B1, “PHENOXY ACIDS FOR THE TREATMENT OF NEUROMUSCULAR DISORDERS” (NMD Pharma A/S, priority 2017, dated 2019).

The target of one assay is T1, CIC-1 channels (Rattus norvegicus, UniProt P35524).
T1 construct: from tissue; host or cells: whole soleus muscle of 12-14 week old Wistar rats
T1 sequence (P35524 1-994): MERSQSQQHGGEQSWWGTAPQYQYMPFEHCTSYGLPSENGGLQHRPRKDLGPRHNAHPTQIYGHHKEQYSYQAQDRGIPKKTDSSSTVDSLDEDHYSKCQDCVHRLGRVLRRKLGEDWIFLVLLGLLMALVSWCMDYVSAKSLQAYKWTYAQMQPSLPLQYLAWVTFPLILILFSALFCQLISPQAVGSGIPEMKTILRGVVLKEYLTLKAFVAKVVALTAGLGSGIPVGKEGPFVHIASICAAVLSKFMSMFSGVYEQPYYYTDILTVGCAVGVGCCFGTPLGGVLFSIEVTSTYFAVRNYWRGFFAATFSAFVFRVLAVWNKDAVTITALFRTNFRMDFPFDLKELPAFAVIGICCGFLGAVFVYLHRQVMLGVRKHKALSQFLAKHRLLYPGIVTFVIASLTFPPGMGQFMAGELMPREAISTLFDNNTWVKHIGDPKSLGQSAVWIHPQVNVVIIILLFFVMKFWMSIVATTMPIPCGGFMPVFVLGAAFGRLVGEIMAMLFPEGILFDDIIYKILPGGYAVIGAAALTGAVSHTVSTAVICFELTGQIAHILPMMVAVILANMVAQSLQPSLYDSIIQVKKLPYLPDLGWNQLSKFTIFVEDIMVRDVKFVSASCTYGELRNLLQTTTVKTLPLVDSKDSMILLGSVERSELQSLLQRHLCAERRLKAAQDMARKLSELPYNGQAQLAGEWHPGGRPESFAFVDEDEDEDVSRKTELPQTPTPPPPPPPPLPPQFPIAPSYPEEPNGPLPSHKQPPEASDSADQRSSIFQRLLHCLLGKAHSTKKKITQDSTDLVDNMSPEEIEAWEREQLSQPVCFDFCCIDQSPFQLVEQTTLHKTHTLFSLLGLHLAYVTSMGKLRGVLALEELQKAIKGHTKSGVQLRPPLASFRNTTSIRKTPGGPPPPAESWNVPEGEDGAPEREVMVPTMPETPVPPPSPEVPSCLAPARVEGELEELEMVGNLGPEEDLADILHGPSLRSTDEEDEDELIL
The experiment in a line: Electrophysiological measurement of compound inhibition of CIC-1 in rat muscle (Gm, three micro-electrode technique, soleus muscle fibres). Format: cell-based. Particulars: reduction of Gm in rat soleus muscle fibres, approx. 30°C; mean ± spread, n = number of experiments. An excerpt:
Table 2: Inhibition of CIC-1 ion channel using compounds of the invention

Another assay deals with soleus muscles. Briefly: Measurement of force in an in vitro model: recovery of contractile force of isolated rat soleus nerve-muscle preparation after tubocurarine. Particulars: Rattus norvegicus, 40 min; 50 µM test compound, after 90 mins 115 nM tubocurarine; percentage of the initial force restored after 40 mins of compound exposure; read-out: Point increase. As to the method:
Recovery of force is quantified as the percentage of the force prior to tubocurarine that is recovered by the compound.
The current invention relates to compounds that inhibit CIC-1 ion channels and increase muscle excitability and thereby improve muscle function in clinical conditions where muscle activation is failing. Such conditions result in loss of contractile function of skeletal muscle, weakness and excessive fatigue. In this series of experiments the compounds were tested for their ability to restore contractile function of isolated rat muscle when the neuromuscular transmission had been compromised akin to neuromuscular disorders.
Experimentally, soleus muscles from 4-5 week old rats were isolated with the motor nerve remaining attached. The nerve-muscle preparations were mounted in experimental setups that enabled electrical stimulation of the motor nerve. Stimulation of the motor nerve led to activation of the muscle fibres and ensuing force production that was recorded.
After mounting the nerve-muscle preparation in the experimental setup, the contractile function of the muscle was initially assessed under the control conditions (Figure 2A). […] The experimental condition mimics the failing neuromuscular transmission in a range of neuromuscular disorders. After addition of tubocurarine the contractile force declined over the next 90 mins to 10-50 % of the control force. 50 µM of the test compound was then added and the contractile force recovered despite the continued presence of tubocurarine. To quantify the ability of the compound to restore force the percentage of the initial force that was restored was determined after 40 mins of compound exposure (Figure 2B) and the point increase is reported in Table 3. Table 3: Percentage increase of initial force that was restored

Another assay concerns the target T2, human CIC-1 channels (Homo sapiens, UniProt P35523).
T2 construct: host or cells: CHO cells constitutively expressing human ClC-1
Briefly: Automated patch-clamp on the human isoform of CIC-1 expressed in CHO cells. Particulars: compound added intracellularly vs control cell patches; positive shift reflects CIC-1 inhibition. The class given is cell-based. As to the method:
The investigatory goal of these experiments was to evaluate how compounds affect the open probability and current amplitude of human CIC-1 channels expressed in CHO cells. Experiments were performed using an automated patch clamp system that allowed high throughput testing of whole cell patches together with both intracellular and extracellular addition of compound.
Automated whole cell patch clamp experiments were performed with the Qpatch 16 system (Sophion Bioscience, Ballerup, Denmark) at room temperature. Data acquisition and analysis were performed in the Qassay software (ver. 5.6, Odense).
To evoke CIC-1 currents in whole cell patches, the membrane potential was initially stepped from a holding potential of -30 mV to +60 mV for 100 ms and then to various test voltages (sweeps) ranging from +120 mV to -140 mV in steps of 20 mV for 300 ms. To obtain tail currents, the membrane potential was stepped to -100 mV after each test voltage for 300 ms and then relaxed to -30 mV for 2 sec between sweeps (Figure 3). I/V relationships for whole cell instant and steady state current amplitudes were obtained by plotting average current densities at the beginning and at the end of the 300 ms step against the membrane potential (Figure 4).
In order to determine the relative overall open probability (P0), the instantaneous tail currents were normalized to the maximal tail current obtained following the most positive voltage step and plotted against the test voltage. Plots of normalized tail currents from each whole cell patch were then fitted to a Boltzmann function allowing determination of half activation voltages (V1/2, Figure 5).
For automated patch clamp experiments extracellular solutions contained: 2 mM CaCl2, 1 mM MgCl2, 10 mM HEPES, 4 mM KCI, 145 mM NaCl, 10 mM Glucose, pH adjusted to 7.4 with NaOH (2 M). Osmolality adjusted to ~320 using sucrose.
Intracellular solutions contained: 80 mM CsF, 60 mM CsCI, 5/1 mM KOH/EGTA, 10 mM HEPES, 10 mM NaCl, pH adjusted to 7.2 with NaOH (2 M). Osmolality adjusted to ~320 mOsm using sucrose.
Cells used in patch clamp experiments were Chinese hamster ovary cells (CHO) constitutively expressing human CIC-1 channels. The amino acid sequence encoded by the cDNA used to create this cell line was identical to the translated sequence for GenBank accession number NM_000083.2. Cells were produced by Charles River (Catalogue CT6175, Cleveland OH, USA) in a cryopreserved format. Experiments were performed on the cells directly after thawing (3 × 10^6 cells used in each experiment).
To evaluate the compound effect on CIC-1, when applied directly to the intracellular side of the cell membrane, the half activation voltage, V1/2, was determined from whole cell patches with compound added to the intracellular solution and then compared to V1/2 determined from control cell patches with only vehicle added to the intracellular solution. Additionally, the effect of extracellular added compound was evaluated by determine V1/2 and steady state current amplitudes before and after exchanging the extracellular solution to contain compound.
The difference in half activation voltage of CIC-1 channels, ΔV1/2, was determined as the difference between the cell patches treated intracellularly with compound and control cells patches and is reported in Table 4 below. A positive shift in ΔV1/2 is reflecting CIC-1 channel inhibition by the tested compound. P-values of <0.05 is considered significant. […]
Background: In patch-clamp work, channel activity is measured electrically.

A further assay concerns Lewis rats. The experiment in a line: Measurement of in situ muscle contractile characteristics (isometric hindlimb force under cisatracurium block). Particulars: 21.5 mg/kg i.v., cisatracurium infusion, 3 experiments. The class given is in vivo. As to the method:
Isometric hindlimb force was measured in 12-week old female Lewis rats in the presence and absence of compound.
Rats were placed under anesthesia with isoflurane (2-4%), intubated and subsequently connected to a micro ventilator (Microvent 1, Hallowell EMC, US). Two stimulation electrodes were inserted through the skin to stimulate the sciatic nerve. A small incision was made proximal to the ankle, to expose the Achilles tendon, which was tied by cotton string, and connected to a force transducer (Fort250, World Precision Instruments) with adjustable position (Vernier control). The Achilles tendon was then cut distal to the attached cotton string. The rat was placed on a heated pad, and to prevent movement artefacts from contraction of the ankle dorsiflexors, the foot was fixated by tape on a footplate.
Muscle contractile properties were assessed by applying an electrical current (under supramaximal voltage conditions) to the nerve and recording the force generated by the muscle. The muscle was stretched until maximal force was obtained, when assessed by 2 Hz stimulation. Isometric force was measured every 30 seconds at 12 Hz (Twitch), 10 pulses, and at every 5 minutes at 80 Hz (Tetanic) for 1 second (80 pulses). This stimulation pattern was employed throughout the experiment, expect in few cases where 80 Hz stimulation was replaced by 12 Hz (10 pulses). […] When the level of neuromuscular inhibition was stable, the test article was injected i.v. at the chosen concentration. The effect of test article was assessed on its ability to increase force generated from the stimulation pattern applied. The effect was assessed in the ability to increase force per se (tetanic, 80 Hz, stimulation), and the ratio between individual twitch peaks (12 Hz stimulation). The effect was monitored for at least 1 hour after injection of test article. In addition, the time from injection of test article to maximal effect on force (both twitch and tetanic) was noted and the time for the effect to disappear (return to baseline), if possible. When appropriate the infusion of neuromuscular blocking agent was ceased, with the stimulation pattern continued, and the return of force to control levels was monitored. Animals were sacrificed by cervical dislocation while still fully sedated.

T2 sequence (P35523 whole entry): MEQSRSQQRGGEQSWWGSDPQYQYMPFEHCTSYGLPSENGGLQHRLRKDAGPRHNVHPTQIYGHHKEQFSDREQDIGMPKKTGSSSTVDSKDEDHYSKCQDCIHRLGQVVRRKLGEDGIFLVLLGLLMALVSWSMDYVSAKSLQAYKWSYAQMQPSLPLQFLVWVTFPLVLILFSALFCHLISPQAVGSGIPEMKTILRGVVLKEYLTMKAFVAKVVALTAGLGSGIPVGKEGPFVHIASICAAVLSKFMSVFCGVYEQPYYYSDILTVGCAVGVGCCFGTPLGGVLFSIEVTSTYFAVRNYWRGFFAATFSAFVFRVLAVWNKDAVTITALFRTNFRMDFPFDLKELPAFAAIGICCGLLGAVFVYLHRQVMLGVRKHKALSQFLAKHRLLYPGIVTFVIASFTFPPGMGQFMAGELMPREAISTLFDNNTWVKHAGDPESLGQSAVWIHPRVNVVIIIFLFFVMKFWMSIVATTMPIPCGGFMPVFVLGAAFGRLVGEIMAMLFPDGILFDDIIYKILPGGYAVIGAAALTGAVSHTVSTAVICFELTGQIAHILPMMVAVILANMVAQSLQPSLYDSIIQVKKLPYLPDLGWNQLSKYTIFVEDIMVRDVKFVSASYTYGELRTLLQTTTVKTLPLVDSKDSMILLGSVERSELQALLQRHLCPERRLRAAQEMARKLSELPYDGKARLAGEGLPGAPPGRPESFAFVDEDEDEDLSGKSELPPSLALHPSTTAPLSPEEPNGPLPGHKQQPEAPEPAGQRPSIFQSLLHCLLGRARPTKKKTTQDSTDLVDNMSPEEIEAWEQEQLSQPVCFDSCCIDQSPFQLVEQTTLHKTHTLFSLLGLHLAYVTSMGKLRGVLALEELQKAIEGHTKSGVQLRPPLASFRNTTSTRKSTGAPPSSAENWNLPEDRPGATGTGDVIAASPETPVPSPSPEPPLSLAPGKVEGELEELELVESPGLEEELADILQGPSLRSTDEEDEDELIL

In the case of `O=C(O)COc1ccc(Br)cc1C1CC1` [Compound A-55, 2-(4-bromo-2-cyclopropylphenoxy)acetic acid], the midpoint of the response on CIC-1 channels, the EC50, lay at 6.4 µM. Moreover, the activation at 50 µM in the assay with soleus muscles came to 25%.
As for `C#Cc1cc(Br)c(F)cc1O[C@@H](C)C(=O)O` [Compound A-47, (2S)-2-(4-bromo-2-ethynyl-5-fluorophenoxy)propanoic acid], in the assay on soleus muscles, the activation at 50 µM amounted to 15%.
As for `CCC(=O)c1cc(Cl)ccc1O[C@@H](C)C(=O)O` [Compound A-30, (2S)-2-(4-chloro-2-propanoylphenoxy)propanoic acid], the ΔV1/2 at human CIC-1 channels came out at 6.2 mV.
Take `C[C@H](Oc1cc(F)c(Br)cc1C1CC1)C(=O)O` [Compound A-44, (2S)-2-(4-bromo-2-cyclopropyl-5-fluorophenoxy)propanoic acid]: the activation at 50 µM with soleus muscles was 12%.
`C#Cc1cc(Br)ccc1O[C@@H](CC)C(=O)O` [Compound A-54, (2S)-2-(4-bromo-2-ethynylphenoxy)butanoic acid] yielded an EC50 at CIC-1 channels of 7.2 ± 3.5 µM. Moreover, in the assay with soleus muscles, the activation at 50 µM was found to be 18%.
Regarding `C#Cc1cc(Br)ccc1O[C@H](C(=O)O)C1CCC1` [Compound A-46, (2S)-2-(4-bromo-2-ethynylphenoxy)-2-cyclobutylacetic acid], the EC50 at CIC-1 channels was 6.1 µM.
Take `C#Cc1cc(Cl)ccc1O[C@@H](C)C(=O)O` [Compound A-20, (2S)-2-(4-chloro-2-ethynylphenoxy)propanoic acid]: at human CIC-1 channels, the ΔV1/2 worked out at 26.4 mV.
The same measure, in the same setting: next, `C[C@H](Oc1ccc(Cl)cc1C1CC1)C(=O)O` [Compound A-4, (2S)-2-(4-chloro-2-cyclopropylphenoxy)propanoic acid]: 8.8 mV.
As for `C[C@H](Oc1ccc(Br)cc1/C=C/F)C(=O)O` [Compound A-52, (2S)-2-{4-bromo-2-[(1E)-2-fluoroethenyl]phenoxy}propanoic acid], the EC50 on CIC-1 channels was 3 µM.
Turning to `C#Cc1cc(Cl)c(F)cc1O[C@@H](C)C(=O)O` [Compound A-48, (2S)-2-(4-chloro-2-ethynyl-5-fluorophenoxy)propanoic acid], in the assay on soleus muscles, the activation at 50 µM stood at 14%.
Consider `C[C@H](Oc1ccc(Br)cc1C1CC1)C(=O)O` [Compound A-2, (2S)-2-(4-bromo-2-cyclopropylphenoxy)propanoic acid], for which the ΔV1/2 at human CIC-1 channels is 9.2 mV. For the same compound, in the assay on Lewis rats (12 Hz stimulation), the “change in twitch peaks” value is on record as “no significant change”. Moreover, in the assay with Lewis rats (80 Hz stimulation), the “average increase in tetanic force” value stood at 28.5%.
As to `C#Cc1cc(Br)ccc1OCC(=O)O` [Compound A-56, 2-(4-bromo-2-ethynylphenoxy)acetic acid], the activation at 50 µM with soleus muscles was 14%.
As for `C=Cc1cc(Br)ccc1O[C@@H](C)C(=O)O` [Compound A-17, (2S)-2-(4-bromo-2-ethenylphenoxy)propanoic acid], the ΔV1/2 on human CIC-1 channels was found to be 10.3 mV. Besides, the EC50 on CIC-1 channels amounted to 4.2 ± 0.7 µM. For the same compound, the activation at 50 µM in the assay on soleus muscles was 21%.
At CIC-1 channels, `C=Cc1cc(Br)ccc1O[C@@H](CCF)C(=O)O` [Compound A-51, (2S)-2-(4-bromo-2-ethenylphenoxy)-4-fluorobutanoic acid] showed an EC50 of 4 ± 3 µM. Besides, in the assay with soleus muscles, the activation at 50 µM is 27%.
Turning to `C[C@H](Oc1ccc(Br)cc1C=C(F)F)C(=O)O` [Compound A-36, (2S)-2-[4-bromo-2-(2,2-difluoroethenyl)phenoxy]propanoic acid], at human CIC-1 channels, the ΔV1/2 was found to be 21.5 mV. This compound gave an EC50 at CIC-1 channels of 3.7 µM. Besides, the activation at 50 µM in the assay on soleus muscles amounted to 16%.
In the case of `C[C@H](Oc1ccc(Br)cc1C1CCC1)C(=O)O` [Compound A-14, (2S)-2-(4-bromo-2-cyclobutylphenoxy)propanoic acid], a half-maximal response at CIC-1 channels (EC50) required 4.3 ± 2.3 µM. For the same compound, in the assay with soleus muscles, the activation at 50 µM amounted to 17%.
Compound `[2H]C([2H])(C)C(=O)c1cc(Cl)ccc1O[C@@H](C)C(=O)O` [Compound A-27, (2S)-2-{4-chloro-2-[(2,2-^2H2)propanoyl]phenoxy}propanoic acid] showed an EC50 at CIC-1 channels of 8.3 µM. In the assay with soleus muscles, the activation at 50 µM is 36%.
